Assay results: patent US20180099950A1, “APOPTOSIS SIGNAL-REGULATING KINASE INHIBITOR” (Gilead Sciences, Inc., priority 2012, published 2018)
Like-named read-outs stand apart in the source and are kept apart here.

What was measured:
CYP3A4 = biological target: T1, CYP3A4 (Homo sapiens, UniProt P08684); test: Cytochrome P450 inhibition, CYP3A4 (midazolam and testosterone); format: in vitro ADME
T1 construct: from tissue; host or cells: human liver microsomes

[1] = Rat pharmacokinetics, 1 mg/kg IV infusion and 5.0 mg/kg PO; format: in vivo
Experimental: Pharmacokinetics of Test Compounds following a 1 mg/kg IV infusion and 5.0 mg/kg PO dose in rats
For IV administration the test compound was formulated in 60:40 PEG 400:water with 1 equivalent HCl at 0.5 mg/mL. […] For PO (oral) administration, the test compound was formulated in 5/75/10/10 ethanol/PG/solutol/water at 2.5 mg/mL.
IV and PO dosing groups each consisted of 3 male SD rats. […] The animals were fasted overnight prior to dose administration and up to 4 hr after dosing.
For the IV infusion group, the test compound was administered by intravenous infusion over 30 minutes. The rate of infusion was adjusted according to the body weight of each animal to deliver a dose of 1 mg/kg at 2 mL/kg. For the oral dosing group, the test article was administered by oral gavage at 2 mL/kg for a dose of 5.0 mg/kg.
Serial venous blood samples (approximately 0.4 mL each) were taken at specified time points after dosing from each animal. The blood samples were collected into Vacutainer™ tubes (Becton-Disckinson Corp, N.J., USA) containing EDTA as the anti-coagulant and were immediately placed on wet ice pending centrifugation for plasma.
An LC/MS/MS method was used to measure the concentration of test compound in plasma.
Non-compartmental pharmacokinetic analysis was performed on the plasma concentration-time data.

[2] = Determination of percent of compound bound to plasma (equilibrium dialysis); format: in vitro ADME; conditions: human
From the text: Sample vials were weighed and recorded.

[3] = pH 7.4, fraction unbound, comparative table, read-out: fu

T1 sequence (P08684 whole entry): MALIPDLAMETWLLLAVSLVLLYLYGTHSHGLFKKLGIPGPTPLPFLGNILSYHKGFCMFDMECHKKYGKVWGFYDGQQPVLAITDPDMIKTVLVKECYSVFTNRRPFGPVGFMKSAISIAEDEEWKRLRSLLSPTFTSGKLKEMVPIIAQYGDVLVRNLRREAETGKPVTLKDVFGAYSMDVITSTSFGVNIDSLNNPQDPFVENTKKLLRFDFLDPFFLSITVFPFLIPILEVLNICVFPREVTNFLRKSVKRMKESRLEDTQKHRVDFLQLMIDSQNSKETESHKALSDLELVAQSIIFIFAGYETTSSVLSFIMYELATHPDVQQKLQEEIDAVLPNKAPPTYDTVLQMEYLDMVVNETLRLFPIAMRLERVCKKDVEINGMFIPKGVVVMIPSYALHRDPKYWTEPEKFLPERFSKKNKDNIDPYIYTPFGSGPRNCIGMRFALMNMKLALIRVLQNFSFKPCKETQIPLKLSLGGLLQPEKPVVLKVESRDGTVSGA

Cc1ccc(C(=O)Nc2cccc(-c3nncn3C(C)C)n2)cc1-n1cnc(C2CC2)c1 [Compound B]
CYP3A4 IC50/PBAdj.EC50 value of compound of formula (I) higher than that of the named compound (CYP3A4): 92 times | number of times the compound of formula (I) shows an improvement over the indicated compound: Cyp3A4 IC50 (TST) (CYP3A4): (2.8X) | IC50 (CYP3A4; testosterone substrate, comparative table, read-out: Cyp3A4 IC50 Testesterone (TST))): 4 µM | clearance ([1]; male, SD, rat, plasma, intravenous, 1 mg/kg, rats): 6.5 mL/min/kg | Vd ([1]; male, SD, rat, plasma, intravenous, 1 mg/kg, rats, read-out: Vss): 0.54 L/kg | bioavailability ([1]; male, SD, rat, plasma, rats, 5.0 mg/kg PO, read-out: oral bioavailability (% F)): 50% | half-life ([1]; male, SD, rat, plasma, rats, read-out: t½ (converted)): 1.3 h | number of times the compound of formula (I) shows an improvement over the indicated compound: % F in rats ([1]; rat, in vivo): (1.5X) | number of times the compound of formula (I) shows an improvement over the indicated compound: CL in rats ([1]; rat, in vivo): (3.6X) | number of times the compound of formula (I) shows an improvement over the indicated compound: t½ in rats ([1]; rat, in vivo): (3.9X) | fraction unbound at 3 h, 2 μM [2, 3]: 0.032

Cc1cc(F)c(C(=O)Nc2cccc(-c3nncn3C(C)C)n2)cc1-n1cnc(C2CC2)c1 [compound of formula (I), 5-(4-cyclopropyl-1H-imidazol-1-yl)—N-(6-(4-isopropyl-4H-1,2,4-triazol-3-yl)pyridin-2-yl)-2-fluoro-4-methylbenzamide]
fraction unbound at 3 h, 2 μM [2, 3]: 0.12 | fraction unbound at 3 h, 2 μM ([2]; pH 7.4, human plasma, 2 uM, 3 hours at 37 C, read-out: percent unbound): 0.119

CC(C)n1cnnc1-c1cccc(NC(=O)c2cccc(-n3cnc(C4CC4)c3)c2)n1 [Compound A]
CYP3A4 IC50/PBAdj.EC50 value of compound of formula (I) higher than that of the named compound (CYP3A4): 43 times | number of times the compound of formula (I) shows an improvement over the indicated compound: Cyp3A4 IC50 (TST) (CYP3A4): (10X) | number of times the compound of formula (I) shows an improvement over the indicated compound: % F in rats ([1]; rat, in vivo): (6.8X) | number of times the compound of formula (I) shows an improvement over the indicated compound: CL in rats ([1]; rat, in vivo): (2.7X) | number of times the compound of formula (I) shows an improvement over the indicated compound: Vss in rats ([1]; rat, in vivo): (3.2X) | number of times the compound of formula (I) shows an improvement over the indicated compound: t½ in rats ([1]; rat, in vivo): (8.6X) | t½ ([1]; rats): 0.59 h | fraction unbound at 3 h, 2 μM [2, 3]: 0.048
